From patent US20180237424A1, “FGFR3 ANTAGONISTS” (INSERM (INSTITUT NATIONAL DE LA SANTE ET DE LA RECHERCHE …, priority 2015, published 2018) come the findings set out here.

pIC50: −log10 of the molar value.

One series addresses FGFR3 WT (Homo sapiens, UniProt P22607). The experiment in a line: in vitro inhibition of FGFR3 (WT). In kind it is biochemical.
In another series the target is T1, FGFR3-K650E (Homo sapiens, UniProt P22607, K650E).
T1 construct: expressed in transfected cells; host or cells: HEK 293 VNR cells
T1 sequence (P22607 23-806 K650E): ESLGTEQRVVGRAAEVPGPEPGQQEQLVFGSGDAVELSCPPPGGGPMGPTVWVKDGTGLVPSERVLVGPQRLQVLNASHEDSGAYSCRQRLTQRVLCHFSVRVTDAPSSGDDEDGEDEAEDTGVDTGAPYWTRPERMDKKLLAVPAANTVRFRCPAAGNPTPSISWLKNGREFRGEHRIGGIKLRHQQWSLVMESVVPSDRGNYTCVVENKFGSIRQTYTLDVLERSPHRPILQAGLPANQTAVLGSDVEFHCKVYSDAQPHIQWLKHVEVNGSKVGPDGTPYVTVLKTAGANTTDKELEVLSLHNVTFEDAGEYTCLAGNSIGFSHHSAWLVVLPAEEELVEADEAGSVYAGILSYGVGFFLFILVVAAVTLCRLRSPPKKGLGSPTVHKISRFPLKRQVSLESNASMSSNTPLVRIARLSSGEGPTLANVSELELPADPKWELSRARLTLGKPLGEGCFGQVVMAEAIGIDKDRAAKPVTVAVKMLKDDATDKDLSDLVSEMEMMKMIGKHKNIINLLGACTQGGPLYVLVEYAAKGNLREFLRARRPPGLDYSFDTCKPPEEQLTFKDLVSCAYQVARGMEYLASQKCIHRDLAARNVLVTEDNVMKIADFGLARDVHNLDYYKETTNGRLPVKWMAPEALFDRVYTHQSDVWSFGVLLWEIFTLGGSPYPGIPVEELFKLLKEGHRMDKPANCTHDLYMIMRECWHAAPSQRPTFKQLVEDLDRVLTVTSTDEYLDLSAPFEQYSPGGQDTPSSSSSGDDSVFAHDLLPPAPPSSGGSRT
The experiment in a line: in cellulo FGFR3 phosphorylation in HEK 293 VNR cells transfected with FGFR3-K650E (immunoprecipitation, western blot). In kind it is cell-based.

Chain of FGFR3 WT (P22607 23-806): as the sequence (P22607 23-806 K650E) above, with E628K counted along it

Broadly, the pIC50 is the IC50 on a negative log10 scale, so that one unit is a factor of ten. Low values mean a large IC50, high ones a small IC50. With `COC(=O)c1c(NC(C)=O)c(-c2noc(-c3ccc([N+](=O)[O-])cc3)n2)nn1-c1cccc(-c2cn(Cc3ccccc3)nn2)c1` [Cpd 64], at FGFR3 WT (no qualifier printed (column % in vitro inhibition)), the negative-log IC50 (pIC50) was 5.70.

For orientation: melting point means the temperature of the solid-liquid transition. For `COC(=O)c1c(NC(C)=O)c(-c2noc(-c3ccc([N+](=O)[O-])cc3)n2)nn1-c1cccc(OC)c1` [Example 2, Methyl 4-acetamido-1-(3-methoxyphenyl)-3-(5-(4-nitrophenyl)-1,2,4-oxadiazol-3-yl)-1H-pyrazole-5-carboxylate], the melting point is 248 °C. In general, inhibition refers to the drop in the measured response relative to a control, in per cent. A high value points to a strong effect. As to `CC(=O)Nc1c(-c2noc(-c3ccc([N+](=O)[O-])cc3)n2)nn(-c2cccc(-c3cn(Cc4ccccc4)nn3)c2)c1C(=O)NCc1ccccc1` [Cpd 79], at FGFR3 WT, the inhibition at 10 µM was found to be 21% and the inhibition at 50 µM is 97%. `COC(=O)c1c(NC(C)=O)c(-c2noc(-c3ccc(N(C)C)cc3)n2)nn1-c1cccc(OC)c1` [Cpd 27, Methyl 4-acetamido-3-(5-(4-(dimethylamino)phenyl)-1,2,4-oxadiazol-3-yl)-1-(3-methoxyphenyl)-1H-pyrazole-5-carboxylate] showed a melting point of 196 °C.

Turning to `COC(=O)c1c(NC(C)=O)c(-c2noc(-c3ccccc3)n2)nn1-c1cccc(OC)c1` [Cpd 134, Methyl 4-acetamido-1-(3-methoxyphenyl)-3-(5-phenyl-1,2,4-oxadiazol-3-yl)-1H-pyrazole-5-carboxylate], the melting point lay in the range of 186 to 188 °C. Molecule `COC(=O)c1c(NC(C)=O)c(-c2noc(-c3ccc(Br)cc3)n2)nn1-c1cccc(OC)c1` [Cpd 24, Methyl 4-acetamido-3-(5-(4-bromophenyl)-1,2,4-oxadiazol-3-yl)-1-(3-methoxyphenyl)-1H-pyrazole-5-carboxylate] had a melting point of 224 °C. This molecule also had a pIC50 against FGFR3-K650E of 6.82.

At FGFR3-K650E (HEK293, @ 500 nM, K650E), `COC(=O)c1c(NC(C)=O)c(-c2noc(-c3ccc([N+](=O)[O-])cc3)n2)nn1-c1cccc(OC)c1` [Cpd 25] displayed an inhibition at 0.5 µM of 0%.
